Biological target: human PDE1b enzyme (Homo sapiens (Human), UniProt Q01064)
Test: PDE1b inhibitory assay (IMAP TR-FRET)
Conditions: for PDE1b (pEC50): negative log of half-maximal molar inhibitory concentration, 200 nM FAM-cAMP, reported as ranges

SMILES: COc1ccc(Cn2c(=O)n3ncnc3c3c4c(sc32)CN(C2CS(=O)(=O)C2)CC4)cc1 [Example 124, 9-(1,1-Dioxidothietan-3-yl)-6-(4-methoxybenzyl)-8,9,10,11-tetrahydropyrido[4′,3′:4,5]thieno[3,2-e][1,2,4]triazolo[1,5-c]pyrimidin-5 (6H)-one]
- EC50: 100 to 1000 nM

SMILES: COc1ccc(Cn2c(=O)n3ncnc3c3c4c(sc32)CN(CC2COCCO2)CC4)cc1 (stereo not shown) [Example 125, 9-((1,4-Dioxan-2-yl)methyl)-6-(4-methoxybenzyl)-8,9,10,11-tetrahydropyrido[4′,3′:4,5]thieno[3,2-e][1,2,4]triazolo[1,5-c]pyrimidin-5(6H)-one]
- PDE1b (pEC50): >7

SMILES: COc1ccc(Cn2c(=O)n3ncnc3c3c4c(sc32)CN(CC2CCC(=O)O2)CC4)cc1 (stereo not shown) [Example 126]
- PDE1b (pEC50): >7

SMILES: COc1ccc(Cn2c(=O)n3ncnc3c3c4c(sc32)CN(Cc2ccc(F)cc2)CC4)cc1 [Example 127, 9-(4-Fluorobenzyl)-6-(4-methoxybenzyl)-8,9,10,11-tetrahydropyrido[4′,3′:4,5]thieno[3,2-e][1,2,4]triazolo[1,5-c]pyrimidin-5(6H)-one]
- PDE1b (pEC50): >7

SMILES: COc1ccc(Cn2c(=O)n3ncnc3c3c4c(sc32)CN(Cc2ccccc2F)CC4)cc1 [Example 128, 9-(2-Fluorobenzyl)-6-(4-methoxybenzyl)-8,9,10,11-tetrahydropyrido[4′,3′:4,5]thieno[3,2-e][1,2,4]triazolo[1,5-c]pyrimidin-5(6H)-one]
- PDE1b (pEC50): >7

SMILES: O=c1n(Cc2ccc(Cl)cc2F)c2sc3c(c2c2ncnn12)CCN(Cc1ccccn1)C3 [Example 130, 6-(4-Chloro-2-fluorobenzyl)-9-(pyridin-2-ylmethyl)-8,9,10,11-tetrahydropyrido[4′,3′:4,5]thieno[3,2-e][1,2,4]triazolo[1,5-c]pyrimidin-5 (6H)-one]
- PDE1b (pEC50): >7

SMILES: Cn1ccnc1CN1CCc2c(sc3c2c2ncnn2c(=O)n3Cc2ccc(Cl)cc2F)C1 [Example 131]
- PDE1b (pEC50): >7

SMILES: O=c1n(Cc2ccc(Cl)cc2F)c2sc3c(c2c2ncnn12)CCN(Cc1ncccn1)C3 [Example 132, 6-(4-Chloro-2-fluorobenzyl)-9-(pyrimidin-2-ylmethyl)-8,9,10,11-tetrahydropyrido[4′,3′:4,5]thieno[3,2-e][1,2,4]triazolo[1,5-c]pyrimidin-5 (6H)-one]
- PDE1b (pEC50): >7

SMILES: COc1ccc(Cn2c(=O)n3ncnc3c3c4c(sc32)CN(CC2CCCOC2)CC4)cc1 (stereo not shown) [Example 134, 6-(4-Methoxybenzyl)-9-((tetrahydro-2H-pyran-3-yl)methyl)-8,9,10,11-tetrahydropyrido[4′,3′:4,5]thieno[3,2-e][1,2,4]triazolo[1,5-c]pyrimidin-5(6H)-one]
- PDE1b (pEC50): >7

SMILES: COc1ccc(Cn2c(=O)n3ncnc3c3c4c(sc32)CN(CC2CCCOC2)CC4(F)F)cc1 (stereo not shown) [Example 136, 11,11-Difluoro-6-(4-methoxybenzyl)-9-((tetrahydro-2H-pyran-3-yl)methyl)-8,9,10,11-tetrahydropyrido[4′,3′:4,5]thieno[3,2-e][1,2,4]triazolo[1,5-c]pyrimidin-5(6H)-one]
- PDE1b (pEC50): >7

SMILES: COc1ccc(Cn2c(=O)n3ncnc3c3c4c(sc32)CN(Cc2ncccn2)CC4)c(F)c1 [Example 137, 6-(2-Fluoro-4-methoxybenzyl)-9-(pyrimidin-2-ylmethyl)-8,9,10,11-tetrahydropyrido[4′,3′:4,5]thieno[3,2-e][1,2,4]triazolo[1,5-c]pyrimidin-5 (6H)-one]
- PDE1b (pEC50): >7

SMILES: COc1ccc(Cn2c(=O)n3ncnc3c3c4c(sc32)CN(Cc2nccn2C)CC4)c(F)c1 [Example 138, 6-(2-Fluoro-4-methoxybenzyl)-9-((1-methyl-1H-imidazol-2-yl)methyl)-8,9,10,11-tetrahydropyrido[4′,3′:4,5]thieno[3,2-e][1,2,4]triazolo[1,5-c]pyrimidin-5(6H)-one]
- PDE1b (pEC50): >7

SMILES: COc1ccc(Cn2c(=O)n3ncnc3c3c4c(sc32)CN(Cc2ccccn2)CC4)c(F)c1 [Example 139, 6-(2-Fluoro-4-methoxybenzyl)-9-(pyridin-2-ylmethyl)-8,9,10,11-tetrahydropyrido[4′,3′:4,5]thieno[3,2-e][1,2,4]triazolo[1,5-c]pyrimidin-5 (6H)-one]
- PDE1b (pEC50): >7

SMILES: COc1ccc(Cn2c(=O)n3ncnc3c3c4c(sc32)CN(CC2CCOC2)CC4)c(F)c1 (stereo not shown) [Example 140, 6-(2-Fluoro-4-methoxybenzyl)-9-((tetrahydrofuran-3-yl)methyl)-8,9,10,11-tetrahydropyrido[4′,3′:4,5]thieno[3,2-e][1,2,4]triazolo[1,5-c]pyrimidin-5(6H)-one]
- PDE1b (pEC50): >7

SMILES: COc1ccc(Cn2c(=O)n3ncnc3c3c4c(sc32)CN(CC2CCCOC2)CC4)c(F)c1 (stereo not shown) [Example 142, 6-(2-Fluoro-4-methoxybenzyl)-9-((tetrahydro-2H-pyran-3-yl)methyl)-8,9,10,11-tetrahydropyrido[4′,3′:4,5]thieno[3,2-e][1,2,4]triazolo[1,5-c]pyrimidin-5(6H)-one]
- PDE1b (pEC50): >7

SMILES: COc1ccc(Cn2c(=O)n3ncnc3c3c4c(sc32)CN(CC2CCOC2)CCC4)cc1 (stereo not shown) [Example 143, 6-(4-Methoxybenzyl)-9-((tetrahydrofuran-3-yl)methyl)-6,8,9,10,11,12-hexahydro-5H-[1,2,4]triazolo[1″,5″:1%6′]pyrimido[5′,4′:4,5]thieno[2,3-c]azepin-5-one]
- PDE1b (pEC50): >7

SMILES: COc1ccc(Cn2c(=O)n3ncnc3c3c4c(sc32)CN(Cc2nccn2C)CCC4)cc1 [Example 144, 6-(4-Methoxybenzyl)-9-((1-methyl-1H-imidazol-2-yl)methyl)-6,8,9,10,11,12-hexahydro-5H-[1,2,4]triazolo[1″,5″:1′,6′]pyrimido[5′,4′:4,5]thieno[2,3-c]azepin-5-one]
- PDE1b (pEC50): >7

SMILES: COc1ccc(Cn2c(=O)n3ncnc3c3c4c(sc32)CN(Cc2ncccn2)CCC4)cc1 [Example 145, 6-(4-Methoxybenzyl)-9-(pyrimidin-2-ylmethyl)-6,8,9,10,11,12-hexahydro-5H-[1,2,4]triazolo[1″,5″:1′,6]pyrimido[5′,4′:4,5]thieno[2,3-c]azepin-5-one]
- PDE1b (pEC50): >7

SMILES: COc1ccc(Cn2c(=O)n3ncnc3c3c4c(sc32)CN(Cc2ccccn2)CCC4)cc1 [Example 146, 6-(4-Methoxybenzyl)-9-(pyridin-2-ylmethyl)-6,8,9,10,11,12-hexahydro-5H-[1,2,4]triazolo[1″,5″:1′,6′]pyrimido[5′,4′:4,5]thieno[2,3-c]azepin-5-one]
- PDE1b (pEC50): >7

SMILES: COc1ccc(Cn2c(=O)n3ncnc3c3c4c(sc32)CN(CC2CCOCC2)CCC4)cc1 [Example 147, 6-(4-Methoxybenzyl)-9-((tetrahydro-2H-pyran-4-yl)methyl)-6,8,9,10,11,12-hexahydro-5H-[1,2,4]triazolo[1″,5″:1′,6′]pyrimido[5′,4′:4,5]thieno[2,3-c]azepin-5-one]
- PDE1b (pEC50): >7

SMILES: COc1ccc(Cn2c(=O)n3ncnc3c3c4c(sc32)N(CC2CCOCC2)CCC4)cc1 [Example 148, 6-(4-Methoxybenzyl)-8-((tetrahydro-2H-pyran-4-yl)methyl)-8,9,10,11-tetrahydropyrido[3′,2′:4,5]thieno[3,2-e][1,2,4]triazolo[1,5-c]pyrimidin-5(6H)-one]
- PDE1b (pEC50): >7

SMILES: COc1ccc(Cn2c(=O)n3ncnc3c3c4c(sc32)N(CC2CCCOC2)CCC4)cc1 (stereo not shown) [Example 149, 6-(4-Methoxybenzyl)-8-((tetrahydro-2H-pyran-3-yl)methyl)-8,9,10,11-tetrahydropyrido[3′,2′:4,5]thieno[3,2-e][1,2,4]triazolo[1,5-c]pyrimidin-5(6H)-one]
- PDE1b (pEC50): >7

SMILES: COc1ccc(Cn2c(=O)n3ncnc3c3c4c(sc32)N(CC2CCOC2)CCC4)cc1 (stereo not shown) [Example 150, 6-(4-Methoxybenzyl)-8-((tetrahydrofuran-3-yl)methyl)-8,9,10,11-tetrahydropyrido[3′,2′:4,5]thieno[3,2-e][1,2,4]triazolo[1,5-c]pyrimidin-5(6H)-one]
- PDE1b (pEC50): >7

SMILES: COc1ccc(Cn2c(=O)n3ncnc3c3c4c(sc32)CN(C(C)C(F)F)CC4)cc1 (stereo not shown) [Example 151, 9-(1,1-Difluoropropan-2-yl)-6-(4-methoxybenzyl)-8,9,10,11-tetrahydropyrido[4′,3′:4,5]thieno[3,2-e][1,2,4]triazolo[1,5-c]pyrimidin-5(6H)-one]
- EC50: 100 to 1000 nM

SMILES: COc1ccc(Cn2c(=O)n3ncnc3c3c4c(sc32)N(Cc2ccc(Cl)cc2)CCC4)cc1 [Example 152, 8-(4-Chlorobenzyl)-6-(4-methoxybenzyl)-8,9,10,11-tetrahydropyrido[3′,2′:4,5]thieno[3,2-e][1,2,4]triazolo[1,5-c]pyrimidin-5 (6H)-one]
- EC50: 100 to 1000 nM

SMILES: COc1ccc(Cn2c(=O)n3ncnc3c3c4c(sc32)N(Cc2ccc(Cl)cc2)CCC4)cc1OC [Example 153, 8-(4-Chlorobenzyl)-6-(3,4-dimethoxybenzyl)-8,9,10,11-tetrahydropyrido[3′,2′:4,5]thieno[3,2-e][1,2,4]triazolo[1,5-c]pyrimidin-5 (6H)-one]
- EC50: 1000 to 10000 nM

SMILES: COc1ccc(Cn2c(=O)n3ncnc3c3c4c(sc32)N(Cc2cccc(Cl)c2)CCC4)cc1OC [Example 155, 8-(3-Chlorobenzyl)-6-(3,4-dimethoxybenzyl)-8,9,10,11-tetrahydropyrido[3′,2′:4,5]thieno[3,2-e][1,2,4]triazolo[1,5-c]pyrimidin-5(6H)-one]
- EC50: 1000 to 10000 nM

SMILES: COc1ccc(Cn2c(=O)n3ncnc3c3c4c(sc32)CN(CC2CCOCC2)CC4(F)F)c(F)c1 [Example 156, 11,11-Difluoro-6-(2-fluoro-4-methoxybenzyl)-9-((tetrahydro-2H-pyran-4-yl)methyl)-8,9,10,11-tetrahydropyrido[4′,3′:4,5]thieno[3,2-e][1,2,4]triazolo[1,5-c]pyrimidin-5(6H)-one]
- PDE1b (pEC50): >7

— US10092575B2, “Substituted thiophene- and furan-fused azolopyrimidine-5-(6H)-one compounds” (DART NEUROSCIENCE (CAYMAN) LTD., priority 2012, dated 2018)
